Test results taken from patent publication US8802664B2 (Bioproject, priority 2010, dated 2014).

Assays:
human H4 receptor = molecular target: T1, human H4 receptor (Homo sapiens, UniProt Q9H3N8); assay: [3H]Histamine binding on membranes of CHO cells stably expressing human H4 receptor
T1 construct: expressed in transfected cells
Procedure, shortened: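 First, thawed CHO membranes carrying human H4 were diluted to 20 μg protein per well in pH 7.4 Tris/EDTA buffer. Next, incubation was ended by rapid filtration through PEI-treated GF/B filters followed by cold rinses. Finally, retained radioactivity was counted; 10 μM JNJ 7777120 marked nonspecific binding.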

Ki or IC50 activity class (human H4 receptor)	melting point	Structure (SMILES)
< 0.03 µM	144 °C	CN1CCC(OC(c2nc3ccccc3[nH]2)c2ccc(C(F)(F)F)cc2O)CC1 (centres unmarked) [Example 617]
< 0.03 µM	189 °C	CN1CCC(OC(c2nc3ccccc3[nH]2)c2cc(O)ccc2O)CC1 (centres unmarked) [Example 618]
< 0.3 µM	125 °C	CN1CCC(OC(c2nc3ccccc3[nH]2)c2ccc3c(c2O)CCCC3)CC1 (centres unmarked) [Example 619]
< 0.03 µM	126 °C	CN1CCC(OC(c2nc3ccccc3[nH]2)c2cccc(OC(F)(F)F)c2O)CC1 (centres unmarked) [Example 620]
< 0.03 µM	133 °C	CN1CCC(OC(c2nc3ccccc3[nH]2)c2ccc(OC(F)(F)F)cc2O)CC1 (centres unmarked) [Example 621]
< 0.3 µM	163 °C	Cc1cc(C(OC2CCN(C)CC2)c2nc3ccccc3[nH]2)c(O)c(F)c1C (centres unmarked) [Example 622]
< 0.03 µM	97 °C	Cc1c(F)ccc(C(OC2CCN(C)CC2)c2nc3ccccc3[nH]2)c1O (centres unmarked) [Example 623]
< 0.03 µM	146 °C	Cc1c(F)cc(C(OC2CCN(C)CC2)c2nc3ccccc3[nH]2)c(O)c1F (centres unmarked) [Example 624]
< 0.03 µM	184 °C	CN1CCC(OC(c2nc3ccccc3[nH]2)c2ccc(F)c(F)c2O)CC1 (centres unmarked) [Example 625, 6-[(1H-benzimidazol-2-yl)(1-methylpiperidin-4-yloxy)methyl]-2,3-difluorophenol]

The remaining lines, values behind:

Structure (SMILES)	Ki or IC50 activity class (human H4 receptor)	melting point
Cc1ccc(C(OC2CCN(C)CC2)c2nc3ccccc3[nH]2)c(O)c1F (centres unmarked) [Example 601, 6-[(1H-benzimidazol-2-yl)(1-methylpiperidin-4-yloxy)methyl]-2-fluoro-3-methylphenol]	< 0.03 µM	148 °C
CN1CCC(OC(c2nc3ccccc3[nH]2)c2cc3c(cc2O)CCC3)CC1 (centres unmarked) [Example 602]	< 0.3 µM	152 °C
CCCOc1ccc(O)c(C(OC2CCN(C)CC2)c2nc3ccccc3[nH]2)c1 (centres unmarked) [Example 603]	< 0.3 µM	120 °C
CN1CCC(OC(c2nc3ccccc3[nH]2)c2cc(C(C)(C)c3ccccc3)ccc2O)CC1 (centres unmarked) [Example 604]	< 0.3 µM	130 °C
CN1CCC(OC(c2nc3ccccc3[nH]2)c2cc(OCCF)ccc2O)CC1 (centres unmarked) [Example 605]	< 0.03 µM	222 °C
CN1CCC(OC(c2nc3ccccc3[nH]2)c2cc(OCCCF)ccc2O)CC1 (centres unmarked) [Example 606]	< 0.3 µM	114 °C
Cc1cc(F)cc(C(OC2CCN(C)CC2)c2nc3ccccc3[nH]2)c1O (centres unmarked) [Example 607]	< 1 µM	111 °C
COc1cc(F)c(O)c(C(OC2CCN(C)CC2)c2nc3ccccc3[nH]2)c1 (centres unmarked) [Example 608]	< 0.3 µM	132 °C
CN1CCC(OC(c2nc3ccccc3[nH]2)c2cc(Oc3ccccc3)ccc2O)CC1 (centres unmarked) [Example 609]	< 0.3 µM	140 °C
COc1cc(F)cc(C(OC2CCN(C)CC2)c2nc3ccccc3[nH]2)c1O (centres unmarked) [Example 610]	< 1 µM	108 °C
Cc1cc(O)c(C(OC2CCN(C)CC2)c2nc3ccccc3[nH]2)cc1C (centres unmarked) [Example 611]	< 0.03 µM	139 °C
CN1CCC(OC(c2nc3ccccc3[nH]2)c2cc(SCCCF)ccc2O)CC1 (centres unmarked) [Example 612]	< 0.03 µM	128 °C
Cc1cc(O)c(C(OC2CCN(C)CC2)c2nc3ccccc3[nH]2)cc1F (centres unmarked) [Example 613]	< 0.03 µM	102 °C
CN1CCC(OC(c2nc3ccccc3[nH]2)c2cc(SCCF)ccc2O)CC1 (centres unmarked) [Example 614]	< 0.03 µM	127 °C
CN1CCC(OC(c2nc3ccccc3[nH]2)c2cccc(-c3ccccc3)c2O)CC1 (centres unmarked) [Example 615]	< 0.3 µM	129 °C
CCc1cccc(C(OC2CCN(C)CC2)c2nc3ccccc3[nH]2)c1O (centres unmarked) [Example 616]	< 0.03 µM	105 °C
